Measured values from patent US12661410B2, “Compounds for targeted degradation of RET” (C4 Therapeutics, Inc., priority 2020, dated 2026).
Positions count from the first letter of the chain named. Like-named read-outs stand apart in the source and are kept apart here.

How the values were obtained:
RET(KD: 658-1114 G810R) = molecular target: T1, RET(KD: 658-1114 G810R) (Homo sapiens, UniProt P07949, G810R); assay: HiBiT-Degradation, RET G810R degradation assay (Nano-Glo HiBiT Lytic), 293T.165 cells; assay type: cell-based; conditions: for Emax / DC50: 6.0 hours
T1 construct: 658-1114; expressed in transfected cells; host or cells: 293T.165 (293T cells, generated in-house)
T1 sequence (P07949 658-1114 G810R): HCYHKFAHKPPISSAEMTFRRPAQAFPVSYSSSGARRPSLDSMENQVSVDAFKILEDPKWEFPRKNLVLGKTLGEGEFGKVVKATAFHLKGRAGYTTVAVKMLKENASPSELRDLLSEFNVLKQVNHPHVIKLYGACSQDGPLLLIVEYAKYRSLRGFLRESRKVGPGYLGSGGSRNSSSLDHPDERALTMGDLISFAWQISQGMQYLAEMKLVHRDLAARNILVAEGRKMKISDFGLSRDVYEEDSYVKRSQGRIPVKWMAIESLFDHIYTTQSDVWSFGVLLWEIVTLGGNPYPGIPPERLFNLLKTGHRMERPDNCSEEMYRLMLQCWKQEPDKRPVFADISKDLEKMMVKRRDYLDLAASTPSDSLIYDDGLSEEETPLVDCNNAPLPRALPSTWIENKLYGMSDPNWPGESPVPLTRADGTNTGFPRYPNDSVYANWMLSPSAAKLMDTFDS
Procedure, shortened: (§1)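 Luminescence readout of HiBiT-tagged RET kinase domain remaining after 6 h compound exposure. Cells: 293T.144 (wild type) or 293T.165 (G810R), 11 half-log doses up to 10 μM, duplicates. DC50 and Emax as % remaining protein taken from curve fits.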

RET (658-1114) = molecular target: T2, RET (658-1114) (Homo sapiens, UniProt P07949); assay: HiBiT-Degradation, RET wild-type degradation assay (Nano-Glo HiBiT Lytic), 293T.144 cells; assay type: cell-based; conditions: for DC50 / Emax: 6.0 hours
T2 construct: 658-1114; expressed in transfected cells; host or cells: 293T.144 (293T cells, generated in-house)
T2 sequence (P07949 658-1114): T1 sequence (P07949 658-1114 G810R) with R153G
Procedure, shortened: as §1

[1] = % remaining protein, read-out: 293T.165 RET(KD: 658-1114 G810R) 6.0 hours (Emax)
[2] = half-maximal degradation concentration, read-out: 293T.165 RET(KD: 658-1114 G810R) 6.0 hours (DC50)
[3] = HiBiT-Degradation, read-out: 293T.165 RET(KD: 658-1114 G810R) 6.0 hours (DC50)
[4] = HiBiT-Degradation, read-out: 293T.144 RET (658-1114) 6.0 hours (DC50)
[5] = HiBiT-Degradation, read-out: 293T.144 RET (658-1114) 6.0 hours (Emax)
[6] = RET G810R, read-out: HiBiT-Degradation 293T.165 RET(KD: 658-1114 G810R) 6.0 hours (DC50)
[7] = RET G810R, read-out: HiBiT-Degradation 293T.165 RET(KD: 658-1114 G810R) 6.0 hours (Emax)
[8] = RET wild-type, read-out: HiBiT-Degradation 293T.144 RET (658-1114) 6.0 hours (DC50)
[9] = RET wild-type, read-out: HiBiT-Degradation 293T.144 RET (658-1114) 6.0 hours (Emax)

Emax (RET(KD: 658-1114 G810R); [1]) | DC50 (RET(KD: 658-1114 G810R); [2]) | 293T.165 RET(KD: 658-1114 G810R) 6.0 hours (Emax) (RET(KD: 658-1114 G810R); HiBiT-Degradation) | 293T.165 RET(KD: 658-1114 G810R) 6.0 hours (IP) [nM] (RET(KD: 658-1114 G810R); HiBiT-Degradation) | DC50 (RET(KD: 658-1114 G810R); [3]) | 293T.144 RET (658-1114) 6.0 hours (IP) [nM] (RET (658-1114); HiBiT-Degradation) | DC50 (RET (658-1114); [4]) | Emax (RET (658-1114); [5]) | Structure (SMILES) | HiBiT-Degradation 293T.165 RET(KD: 658-1114 G810R) 6.0 hours (IP) [nM] (RET(KD: 658-1114 G810R); RET G810R) | DC50 (RET(KD: 658-1114 G810R); [6]) | Emax (RET(KD: 658-1114 G810R); [7]) | HiBiT-Degradation 293T.144 RET (658-1114) 6.0 hours (IP) [nM] (RET (658-1114); RET wild-type) | DC50 (RET (658-1114); [8]) | Emax (RET (658-1114); [9])
< 30% | < 100 nM | ++++ (< 30% = ++++) | ++++ (< 50 nM = ++++) | < 100 nM | ++++ (< 50 nM = ++++) | < 50 nM | < 30% | CCC1(C(=O)NC(C)C)CCN(c2ccc(-c3cc(-c4ccc(N5CCN(C(=O)CN6CCC(c7ccc8c(N9CCC(=O)NC9=O)nn(C)c8c7)CC6)CC5)cc4)cn4ncc(C#N)c34)cn2)CC1 [Compound 64, 1-[5-[3-cyano-6-[4-[4-[2-[4-[3-(2,4-dioxohexahydropyrimidin-1-yl)-1-methyl-indazol-6-yl]-1-piperidyl]acetyl]piperazin-1-yl]phenyl]pyrazolo[1,5-a]pyridin-4-yl]-2-pyridyl]-4-ethyl-N-isopropyl-piperidine-4-carboxamide] | – | – | – | – | – | –
< 50% | < 100 nM | +++ (<50% = +++) | +++ (<100 nM = +++) | < 100 nM | ++++ (< 50 nM = ++++) | < 50 nM | < 30% | Cn1nc(N2CCC(=O)NC2=O)c2ccc(C3CCN(CC(=O)N4CCN(c5ccc(-c6cc(-c7ccc(N8CCN(Cc9ccccn9)CC8)nc7)c7c(C#N)cnn7c6)cc5)CC4)CC3)cc21 [Compound 65, 6-[4-[4-[2-[4-[3-(2,4-dioxohexahydropyrimidin-1-yl)-1-methyl-indazol-6-yl]-1-piperidyl]acetyl]piperazin-1-yl]phenyl]-4-[6-[4-(2-pyridylmethyl)piperazin-1-yl]-3-pyridyl]pyrazolo[1,5-a]pyridine-3-carbonitrile] | – | – | – | – | – | –
< 30% | < 50 nM | ++++ (< 30% = ++++) | ++++ (< 50 nM = ++++) | < 50 nM | ++++ (< 50 nM = ++++) | < 50 nM | < 30% | CCC1(C(=O)NC(C)C)CCN(c2ccc(-c3cc(-c4cnn(C5CCN(C(=O)CN6CCN(c7ccc(NC8CCC(=O)NC8=O)cc7F)CC6)CC5)c4)cn4ncc(C#N)c34)cn2)CC1 (stereo not drawn) [Compound 66, 1-[5-[3-cyano-6-[1-[1-[2-[4-[4-[(2,6-dioxo-3-piperidyl)amino]-2-fluoro-phenyl]piperazin-1-yl]acetyl]-4-piperidyl]pyrazol-4-yl]pyrazolo[1,5-a]pyridin-4-yl]-2-pyridyl]-4-ethyl-N-isopropyl-piperidine-4-carboxamide] | – | – | – | – | – | –
< 50% | < 100 nM | – | – | – | – | – | – | N#Cc1cnn2cc(-c3ccc(N4CCN(C(=O)CN5CCC(c6ccc(NC7CCC(=O)NC7=O)cc6F)CC5)CC4)nc3)cc(-c3ccc(N4CCN(Cc5ccccn5)CC4)nc3)c12 (stereo not drawn) [Compound 67, 6-[6-[4-[2-[4-[4-[(2,6-dioxo-3-piperidyl)amino]-2-fluoro-phenyl]-1-piperidyl]acetyl]piperazin-1-yl]-3-pyridyl]-4-[6-[4-(2-pyridylmethyl)piperazin-1-yl]-3-pyridyl]pyrazolo[1,5-a]pyridine-3-carbonitrile] | ++++ (< 50 nM = ++++) | < 100 nM | < 50% | ++++ (< 50 nM = ++++) | < 50 nM | < 30%
< 50% | < 100 nM | – | – | – | – | – | – | CCC1(C(=O)NC(C)C)CCN(c2ccc(-c3nc(-c4cnn(C5CCN(C(=O)CC6(O)CCN(c7ccc(NC8CCC(=O)NC8=O)c(F)c7)CC6)CC5)c4)cn4ncc(C#N)c34)cn2)CC1 (stereo not drawn) [Compound 69, 1-[5-[3-cyano-6-[1-[1-[2-[1-[4-[(2,6-dioxo-3-piperidyl)amino]-3-fluoro-phenyl]-4-hydroxy-4-piperidyl]acetyl]-4-piperidyl]pyrazol-4-yl]pyrazolo[1,5-a]pyrazin-4-yl]-2-pyridyl]-4-ethyl-N-isopropyl-piperidine-4-carboxamide] | ++++ (< 50 nM = ++++) | < 100 nM | < 50% | ++++ (< 50 nM = ++++) | < 50 nM | < 30%
< 50% | < 50 nM | – | – | – | – | – | – | N#Cc1cnn2cc(-c3cnn(C4CCN(C(=O)CN5CCC(c6ccc(NC7CCC(=O)NC7=O)cc6F)CC5)CC4)c3)nc(-c3ccc(N4CCC(Cc5ccccn5)CC4)nc3)c12 (stereo not drawn) [Compound 72, 6-[1-[1-[2-[4-[4-[(2,6-dioxo-3-piperidyl)amino]-2-fluoro-phenyl]-1-piperidyl]acetyl]-4-piperidyl]pyrazol-4-yl]-4-[6-[4-(2-pyridylmethyl)-1-piperidyl]-3-pyridyl]pyrazolo[1,5-a]pyrazine-3-carbonitrile] | ++++ (< 50 nM = ++++) | < 50 nM | < 50% | ++++ (< 50 nM = ++++) | < 50 nM | < 30%

Structure (SMILES) | Emax (RET(KD: 658-1114 G810R); [1]) | DC50 (RET(KD: 658-1114 G810R); [2]) | 293T.165 RET(KD: 658-1114 G810R) 6.0 hours (Emax) (RET(KD: 658-1114 G810R); HiBiT-Degradation) | 293T.165 RET(KD: 658-1114 G810R) 6.0 hours (IP) [nM] (RET(KD: 658-1114 G810R); HiBiT-Degradation) | DC50 (RET(KD: 658-1114 G810R); [3]) | 293T.144 RET (658-1114) 6.0 hours (IP) [nM] (RET (658-1114); HiBiT-Degradation) | DC50 (RET (658-1114); [4]) | Emax (RET (658-1114); [5]) | HiBiT-Degradation 293T.165 RET(KD: 658-1114 G810R) 6.0 hours (IP) [nM] (RET(KD: 658-1114 G810R); RET G810R) | DC50 (RET(KD: 658-1114 G810R); [6]) | Emax (RET(KD: 658-1114 G810R); [7]) | HiBiT-Degradation 293T.144 RET (658-1114) 6.0 hours (IP) [nM] (RET (658-1114); RET wild-type) | DC50 (RET (658-1114); [8]) | Emax (RET (658-1114); [9])
N#Cc1cnn2cc(-c3cnn(C4CCN(C(=O)CN5CCC(c6ccc(NC7CCC(=O)NC7=O)cc6F)CC5)CC4)c3)cc(-c3ccc(N4CC5CC(C4)N5Cc4cccnc4)nc3)c12 (stereo not drawn) [Compound 68, 6-[1-[1-[2-[4-[4-[(2,6-dioxo-3-piperidyl)amino]-2-fluoro-phenyl]-1-piperidyl]acetyl]-4-piperidyl]pyrazol-4-yl]-4-[6-[6-(3-pyridylmethyl)-3,6-diazabicyclo[3.1.1]heptan-3-yl]-3-pyridyl]pyrazolo[1,5-a]pyridine-3-carbonitrile] | < 30% | < 50 nM | – | – | – | – | – | – | ++++ (< 50 nM = ++++) | < 50 nM | < 30% | ++++ (< 50 nM = ++++) | < 50 nM | < 30%
COc1ccnc(CN2C3CC2CN(c2ccc(-c4cc(-c5cnn(C6CCN(C(=O)CN7CCC(c8ccc(NC9CCC(=O)NC9=O)cc8F)CC7)CC6)c5)cn5ncc(C#N)c45)cn2)C3)c1 (stereo not drawn) [Compound 71, 6-[1-[1-[2-[4-[4-[(2,6-dioxo-3-piperidyl)amino]-2-fluoro-phenyl]-1-piperidyl]acetyl]-4-piperidyl]pyrazol-4-yl]-4-[6-[6-[(4-methoxy-2-pyridyl)methyl]-3,6-diazabicyclo[3.1.1]heptan-3-yl]-3-pyridyl]pyrazolo[1,5-a]pyridine-3-carbonitrile] | < 30% | < 100 nM | – | – | – | – | – | – | ++++ (< 50 nM = ++++) | < 100 nM | < 30% | ++++ (< 50 nM = ++++) | < 50 nM | < 30%
N#Cc1cnn2cc(-c3cnn(C4CCN(C(=O)CN5CCC(c6ccc(NC7CCC(=O)NC7=O)cc6F)CC5)CC4)c3)cc(-c3ccc(N4CC5CC(C4)N5Cc4ccccn4)nc3)c12 (stereo not drawn) [Compound 73, 6-[1-[1-[2-[4-[4-[(2,6-dioxo-3-piperidyl)amino]-2-fluoro-phenyl]-1-piperidyl]acetyl]-4-piperidyl]pyrazol-4-yl]-4-[6-[6-(2-pyridylmethyl)-3,6-diazabicyclo[3.1.1]heptan-3-yl]-3-pyridyl]pyrazolo[1,5-a]pyridine-3-carbonitrile] | < 30% | < 50 nM | – | – | – | – | – | – | ++++ (< 50 nM = ++++) | < 50 nM | < 30% | ++++ (< 50 nM = ++++) | < 50 nM | < 30%
